These results are taken from ChEMBL document CHEMBL3232725, “2-Aryl-3H-indol-3-ones: synthesis, electrochemical behaviour and antiplasmodial activities” (Eur J Med Chem, 2014).

Series [1] can be described thus: Selectivity index, ratio of CC50 for human MCF7 cells to IC50 for chloroquine-resistant Plasmodium falciparum FcB1 infected in RBC. It is filed as functional.
Series [2] in a line: Cytotoxicity against human MCF7 cells after 48 hrs by XTT reduction assay. It is filed as cell-based. (In general: Formazan colour is commonly taken as a measure of viable cells.)
For the next series, the system named is Plasmodium falciparum. In words: Antiplasmodial activity against chloroquine-resistant Plasmodium falciparum FcB1 infected in RBC assessed as inhibition of [3H]-hypoxanthine incorporation after 48 hrs by beta-counting. In kind it is functional, organism-based. Particulars: FcB1/Columbia.

In general, CC50 refers to the concentration giving 50% cytotoxicity. For orientation: IC50 means the concentration that inhibits the measured activity by half.

For `COc1ccc2c(c1)C(=O)C(c1ccc(OC(C)C)cc1)=N2`, in series [1], the “Ratio CC50/IC50” value amounted to 127. The same molecule registered a CC50 at 48 h in series [2] of 11200 nM. The IC50 in the series with Plasmodium falciparum is 88 nM.
As to `O=C1C(c2ccccc2)=Nc2ccccc21`, the “Ratio CC50/IC50” value in series [1] came to 135. In addition, half-maximal cytotoxicity in series [2] (CC50 at 48 h) was put at 164000 nM. Further, in the series with Plasmodium falciparum, the IC50 was found to be 1330 nM.
For the molecule `C[C@H]1[C@H](OC(=O)CCC(=O)O)O[C@@H]2O[C@@]3(C)CC[C@H]4[C@H](C)CC[C@@H]1[C@@]24OO3` [SODIUM ARESUNATE], the IC50 in the series with Plasmodium falciparum was 6 nM.
Turning to `O=C1C(c2ccc(O)cc2)=Nc2ccccc21`, the “Ratio CC50/IC50” value in series [1] was 1289. This molecule also came in with a CC50 at 48 h in series [2] of 130000 nM. Further, in the series on Plasmodium falciparum, the IC50 is 101 nM.
On the same counts, the results for `COc1ccc2c(c1)C(=O)C(c1ccc(O)cc1)=N2` are 164, 16000 nM and 99 nM.
Take `COc1ccc(C2=Nc3ccccc3C2=O)cc1`: the “Ratio CC50/IC50” value in series [1] turned out to be 74. Moreover, the CC50 at 48 h in series [2] stood at 38000 nM. In addition, the IC50 in the series on Plasmodium falciparum turned out to be 514 nM.
As for `COc1ccc(C2=Nc3ccc(OC)cc3C2=O)cc1`, the “Ratio CC50/IC50” value in series [1] was determined as 381.4. Besides, the midpoint of cytotoxicity in series [2], the CC50 at 48 h, lay at 30700 nM. Besides, in the series with Plasmodium falciparum, the IC50 is 80 nM.
In the case of `COc1ccc2c(c1)C(=O)C(c1ccccc1)=N2`, the “Ratio CC50/IC50” value in series [1] is 146. This molecule gave a CC50 at 48 h in series [2] of 21000 nM. For the same molecule, in the series on Plasmodium falciparum, the half-inhibitory concentration (IC50) was determined as 141 nM.
In the case of `COc1ccc2c(c1)C(=O)C(c1ccc(N(C)C)cc1)=N2`, in series [1], the “Ratio CC50/IC50” value was 423.4. The molecule also returned a CC50 at 48 h in series [2] of 20700 nM. Also, in the series with Plasmodium falciparum, the IC50 was determined as 49 nM.
As for `O=C1C(c2ccc(Cl)cc2)=Nc2ccccc21`, the “Ratio CC50/IC50” value in series [1] amounted to 105. For the same molecule, the CC50 at 48 h in series [2] came out at 20300 nM. Besides, the IC50 in the series on Plasmodium falciparum was 192 nM.
